Measurements: patent publication US20250230193A1, “CYCLIC COMPOUND HAVING SELECTIVE KRAS INHIBITORY EFFECT ON HRAS AND NRAS” (CHUGAI SEIYAKU KABUSHIKI KAISHA, priority 2022, published 2025)

Experiments:
[1] = molecular target: GDP-bound NRAS wild-type protein (Homo sapiens, UniProt P01111); experiment: Binding to NRAS by surface plasmon resonance (SPR), Single Cycle Kinetics; conditions: SPR
[2] = molecular target: GDP-bound HRAS wild-type protein (Homo sapiens, UniProt P01112); experiment: Binding to HRAS by surface plasmon resonance (SPR), Single Cycle Kinetics; conditions: SPR
Sequence of GDP-bound HRAS wild-type protein (P01112 whole entry): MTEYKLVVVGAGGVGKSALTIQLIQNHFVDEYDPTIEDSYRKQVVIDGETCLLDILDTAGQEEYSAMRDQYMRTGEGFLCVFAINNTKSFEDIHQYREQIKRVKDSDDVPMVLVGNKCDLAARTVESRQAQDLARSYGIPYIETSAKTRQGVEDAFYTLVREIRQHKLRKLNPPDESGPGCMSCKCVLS

[3] = KD ratio, GDP-bound NRAS wild-type vs GDP-bound KRAS wild-type
[4] = KD ratio, GDP-bound HRAS wild-type vs GDP-bound KRAS wild-type

Sequence of GDP-bound NRAS wild-type protein (P01111 whole entry): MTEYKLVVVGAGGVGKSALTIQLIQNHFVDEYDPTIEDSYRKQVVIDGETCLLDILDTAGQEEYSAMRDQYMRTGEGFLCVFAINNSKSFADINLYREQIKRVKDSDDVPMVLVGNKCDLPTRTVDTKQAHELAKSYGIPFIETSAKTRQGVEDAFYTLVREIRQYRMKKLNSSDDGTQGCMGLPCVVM

SMILES	NRAS/KRAS (ratio of KD value with respect to NRAS to KD value with respect to KRAS) [1, 3]	HRAS/KRAS (ratio of KD value with respect to HRAS to KD value with respect to KRAS) [2, 4]	NRAS/KRAS (ratio of KD value with respect to GDP-bound NRAS wild-type protein to KD value with respect to KRAS) [1]	HRAS/KRAS (ratio of KD value with respect to GDP-bound HRAS wild-type protein to KD value with respect to KRAS) [2]	further results
CCCOC[C@H]1C(=O)N[C@@H]([C@@H](C)CC)C(=O)N2CCC[C@H]2C(=O)N(C)[C@H]2C/C=C\CCN(C2=O)[C@@H](Cc2ccc(C)cc2)C(=O)N(C)CC(=O)N[C@@H](CCc2ccc(C(F)(F)F)c(OC)c2)C(=O)N2C[C@@H](C)C[C@H]2C(=O)N(C)C2(CCC2)C(=O)N(C)[C@@H](C2CCCC2)C(=O)N(C)[C@H](C(=O)N(C)C)CC(=O)N1C [PP2369]					NRAS/KRAS (ratio of KD value with respect to NRAS to KD value with respect to KRAS) ([1]; GDP-bound NRAS wild-type vs GDP-bound KRAS wild-type): A (a compound having 10 or more and less than 20 is denoted as A); HRAS/KRAS (ratio of KD value with respect to HRAS to KD value with respect to KRAS) ([2]; GDP-bound HRAS wild-type vs GDP-bound KRAS wild-type): B (a compound having 3 or more and less than 10 is denoted as B)
CC[C@H](C)[C@@H]1NC(=O)[C@H](COC)N(C)C(=O)C[C@@H](C(=O)N2CCOCC2)N(C)C(=O)[C@H](C2CCCC2)N(C)C(=O)C2(CCC2)NC(=O)[C@@H]2C[C@@H](OCC(C)C)CN2C(=O)[C@H](CCc2cc(F)c(C(F)(F)F)c(F)c2)NC(=O)CN(C)C(=O)[C@H](Cc2ccc(C(F)(F)F)cc2)N2CCCCC[C@@H](C2=O)N(C)C(=O)CN(C)C1=O [PP0839]	B (a compound having 3 or more and less than 10 is denoted as B)	B (a compound having 3 or more and less than 10 is denoted as B)			
CCC(CC)[C@@H]1NC(=O)[C@H](CC(C)C)N(C)C(=O)C[C@@H](C(=O)N2CCOCC2)N(C)C(=O)[C@H](C2CCCC2)N(C)C(=O)C2(CCCC2)NC(=O)[C@@H]2CCCN2C(=O)[C@H](CCc2cc(F)c(C(F)(F)F)c(F)c2)NC(=O)CN(C)C(=O)[C@H](Cc2ccc(C(F)(F)F)cc2)N2CCCCC[C@@H](C2=O)N(C)C(=O)CN(C)C1=O [PP0523]			A (a compound having 10 or more and less than 20 is denoted as A)	B (a compound having 3 or more and less than 10 is denoted as B)	
CC[C@H](C)[C@@H]1NC(=O)[C@H](CC(C)C)N(C)C(=O)C[C@@H](C(=O)N(C)C)N(C)C(=O)[C@H](C2CCCC2)N(C)C(=O)C2(CCC2)NC(=O)[C@@H]2C[C@@H](C)CN2C(=O)[C@H](CCc2cc(F)c(C(F)(F)F)c(F)c2)NC(=O)CN(C)C(=O)[C@H](Cc2ccc(C)cc2)N2CC/C=C\C[C@@H](C2=O)N(C)C(=O)CN(C)C1=O [PP1866]					NRAS/KRAS (ratio of KD value for NRAS to KD value for KRAS) [1, 3]: A (a compound having 10 or more and less than 20 is denoted as A); HRAS/KRAS (ratio of KD value for HRAS to KD value for KRAS) [2, 4]: B (a compound having 3 or more and less than 10 is denoted as B)
CCO[C@@H]1C[C@H]2C(=O)NC3(CCC3)C(=O)N(C)[C@@H](C3CCCC3)C(=O)N(C)[C@H](C(=O)N3CCOCC3)CC(=O)N(C)[C@@H](Cc3ccccc3F)C(=O)N[C@@H]([C@@H](C)CC)C(=O)N(C)CC(=O)N(C)[C@H]3CCCCCN(C3=O)[C@@H](Cc3ccc(C(F)(F)F)cc3)C(=O)N(C)CC(=O)N[C@@H](CCc3cc(F)c(C(F)(F)F)c(F)c3)C(=O)N2C1 [PP0926]	B (a compound having 3 or more and less than 10 is denoted as B)	B (a compound having 3 or more and less than 10 is denoted as B)			
CCO[C@@H]1C[C@H]2C(=O)NC3(CCCC3)C(=O)N(C)[C@@H](C3CCCC3)C(=O)N(C)[C@H](C(=O)N(C)C)CC(=O)N(C)[C@@H](C)C(=O)N[C@@H]([C@@H](C)CC)C(=O)N(C)CC(=O)N(C)[C@H]3CCCCN(C3=O)[C@@H](Cc3ccc(C(F)(F)F)cc3)C(=O)N(C)CC(=O)N[C@@H](CCc3cc(F)c(C(F)(F)F)c(F)c3)C(=O)N2C1 [PP0586]			C (A compound having a KD ratio of 0.1 or more and less than 3 is denoted as C)	B (a compound having 3 or more and less than 10 is denoted as B)	
